Results reported in patent US9889184B2 (priority 2008, dated 2018).

What was measured:
[1] = test system: Fov hyphae; assay: Membrane permeabilization of Fov hyphae, SYTOX green uptake; format: cell-based, Fusarium oxysporum f. sp. vasinfectum
Description: Fov hyphae were grown in half-strength PDB (10 mL in a 50 mL tube) from a starting concentration of 5×10^4 spores/mL for 18 h at 25° C. with constant shaking. Samples (1 mL) were then removed and NaD1 (final concentration 2 μM), NaD1R&A (final concentration 2 μM) or an equivalent volume of water was added before incubation for 2 h at RT with gentle agitation. SYTOX® green (Invitrogen-Molecular Probes, Eugene, Oreg.) was added to a final concentration of 0.5 μM and the hyphae were allowed to stand for 10 min. Hyphae (20 μL) were then transferred to microscope slides (SuperFrost (Registered) Plus, Menzel-Glaser) and covered with glass coverslips for visualization of SYTOX® green uptake using an Olympus BX51 fluorescence microscope. SYTOX® green fluorescence was detected using an MWIB filter (excitation wavelength 460-490 nm). Images were captured using a SPOT RT 3CCD digital camera (Diagnostic Instruments) and processed using Adobe Photoshop. SYTOX® green uptake was quantitated by measuring fluorescence of hyphae in microtitre trays using a fluorimeter (SpectraMax M2; Molecular Devices) with excitation and emission wavelengths of 488 nm and 538 nm, respectively.
The effect of temperature on membrane permeabilization of Fov hyphae by NaD1 was monitored as described, except hyphae were pre-equilibrated for 60 min at either 10°, 4° or 0° C. before addition of NaD1 and all subsequent steps were carried out at these temperatures.
The kinetics of membrane permeabilization by NaD1 were studied. Fov hyphae were grown in half-strength PDB from a starting concentration of 5×10^4 spores/mL for 18 h at 25° C. Hyphae (80 μL) were then transferred to 96-well microtitre plates and incubated with SYTOX® green (0.5 μM) for 10 min prior to the addition of 20 μL of peptide solution to give final protein concentrations of 0.2, 0.4, 0.8, 1.6, 3.12, 6.25, 12.5, 25, 50 or 100 μM. Fluorescence readings (Ex; 488 nm, Em; 538 nm) were then taken every 2 min for 3 h using a fluorimeter (SpectraMax M2).

[2] = test system: Fov hyphae; assay: Uptake of NaD1 into hyphae (immunogold EM, bimane fluorescence, immunoblot); format: cell-based, Fusarium oxysporum f. sp. vasinfectum
Description: Fov hyphae were grown as described above prior to the addition of NaD1 (10 μM final concentration) to 1 mL of the culture. Samples (100 μL) were collected after 0, 5, 10, 30, 60, 90 and 120 min. Hyphae were collected by centrifugation (10 min, 10,000×g) and the supernatant was stored at −20° C. for analysis. Hyphae were washed (2×10 min) with KCl (0.6 M) to remove any ionically bound protein before they were resuspended in 50 mM CAPS buffer (pH 10.0) containing 10 mM DTT for 20 min. Hyphae were collected by centrifugation and the supernatant, containing cell wall proteins, was collected for analysis. The pellet (containing cells) was resuspended in water and the cells were lysed using glass beads (Sigma, 60 mg) and vortexing (3×10 min). Cellular debris was removed by centrifugation (16,000×g, 10 min) and the supernatant collected for analysis. All samples were then analyzed by SDS-PAGE and immunoblotting.
Fov hyphae were grown for 18 h in half-strength PDB (5 mL) with vigorous shaking at 25° C. from a starting spore suspension of 5×10^4/mL. Hyphae were then treated with 2 μM NaD1 or an equivalent volume of water for 2 h at RT with gentle agitation, and were washed twice in 0.6 M KCl and three times in PBS before fixation in 4% (w/v) paraformaldehyde in PBS for 1 h at 4° C. Hyphae were again washed three times in PBS before dehydration in a standard ethanol series (15 min each, 50%, 70% and 90% ethanol, 3×15 min 100% ethanol). Hyphae were then infiltrated with LR White resin (ProSciTech) for 1 h at RT, followed by 18 h at 4° C., 1 h at RT and 24 h at 60° C. Fresh LR White resin was used at each step. Ultrathin sections were cut and placed on Formvar coated gold grids.
Grids were blocked with PBS containing 8% (w/v) BSA and 1% (v/v) Triton X-100 for 1 h and labeled with α-NaD1 antibodies (2 μg/mL in blocking buffer) for 1 h. Grids were washed in blocking buffer (3×10 min) and labeled with 15 nm gold particle labeled goat α-rabbit IgG antibodies (ProSciTech diluted 1 in 20 for 1 h. Grids were washed again in blocking solution (3×10 min) followed by water (15 min) before being air-dried. A JEOL JEM2010HC x e80 KV transmission electron microscope was used to examine labeled grids. Pictures were taken on Kodak EM film (ProSciTech) and developed in a dark room before scanning on a Hewlett Packard Scanjet 5P scanner.
Hyphae grown for 18 h as described were treated with NaD1-bimane (2 μM) for between 10 min and 6 h. Hyphae were then visualized by fluorescence microscopy using an MWU filter (excitation wavelength of 330-385 nm).

With “NaD1: plant defensin isolated from floral tissue of Nicotiana alata (SEQ ID NO:12) (RECKTESNTFPGICITKPPCRKACISEKFTDGHCSKILRRCLCTKPC; Nicotiana alata (NaD1))” the “NaD1-induced permeabilization (SYTOX green uptake)” value (“NaD1-induced permeabilization” below) ([1]; 0° C., compared with 4° C.) was “reduced even further”, the “permeabilization of Fov hyphal membranes (SYTOX green)” value ([1]; 0.1, 2 or 10 μM NaD1 or 10 μM NaD1R&A) was “permeabilized hyphae” and the “NaD1-induced permeabilization” value ([1]; 4° C.) was “only a small degree of permeabilization”. For the same substance, the “NaD1-induced permeabilization” value ([1]; 10° C., less than at 25° C.) was “substantial uptake of SYTOX® green”, the “NaD1 concentration up to which Vmax increased linearly; above it rate unchanged (saturable)” value ([1]; Vmax = maximum rate of fluorescence increase) was 6.25 µM and the “NaD1 concentration up to which the rate of permeabilization increased progressively” value ([1]; above it (up to 50 μM) very little difference in kinetics) was 3 µM. For the same substance, the “lag time before permeabilization” value ([1]; all NaD1 concentrations) was “around 20 min”, the “time after which fluorescence began to plateau” value ([1]; all NaD1 concentrations) was 90 min and the SYTOX green uptake ([1]; lowest concentration of NaD1 (0.1 μM)) was “a small amount of SYTOX® green uptake occurred”. For the same substance, the “NaD1 in cytoplasm of treated hyphae, immunogold α-NaD1 labeling” value ([2]; NaD1 10 μM, 2 h, many, but not all, hyphae) was “heavily labeled”, the “time after which NaD1 uptake occurred” value ([2]; SDS-PAGE and immunoblotting of cytoplasmic contents) was 20 min and the “time until which NaD1 in the Fov cytoplasm increased” value ([2]; immunoblotting, decreased slightly afterwards) was 60 min.
